Measured values as given in US20140309244A1, “NOVEL MICROBIOCIDES” (SYNGENTA PARTICIPATIONS AG, priority 2010, published 2014).

How the values were obtained:
[1] = test system: Magnaporthe grisea (Pyricularia oryzae); assay: whole plant or invertebrate; format: in vivo; conditions: foliar, read-out: control of Magnaporthe grisea (percent disease control compared to untreated)
[2] = test system: Mycosphaerella arachidis (Cercospora arachidicola); assay: Mycosphaerella arachidis (Cercospora arachidicola) / liquid culture (early leaf spot); format: cell-based; conditions: PDB potato dextrose broth, 96-well plate, 24° C., 4-5 days after application, read-out: control of Mycosphaerella arachidis (inhibition of growth, photometric)
[3] = test system: Mycosphaerella graminicola (Septoria tritici); assay: Mycosphaerella graminicola (Septoria tritici) / liquid culture (Septoria blotch); format: cell-based; conditions: Zymoseptoria tritici, PDB potato dextrose broth, 96-well plate, 24° C., 4-5 days after application, read-out: control of Mycosphaerella graminicola (inhibition of growth, photometric)
[4] = test system: Puccinia recondita f. sp. tritici; assay: Puccinia recondita f. sp. tritici / wheat / leaf disc curative (brown rust); format: in vivo; conditions: foliar, wheat cv Kanzler leaf segments, applied 1 day after inoculation, assessed 6-8 days after application, read-out: control of Puccinia recondita f. sp. tritici (percent disease control compared to untreated)
Method: Puccinia recondita f. sp. tritici/Wheat/Leaf Disc Curative (Brown Rust): Wheat leaf segments cv Kanzler were placed on agar in 24-well plates. The leaf segments were inoculated with a spore suspension of the fungus. The plates were stored in darkness at 19° C. and 75% relative humidity. The formulated test compound diluted in water was applied at an application rate of 200 ppm 1 day after inoculation.

[5] = test system: Thanatephorus cucumeris (Rhizoctonia solani); assay: Thanatephorus cucumeris (Rhizoctonia solani) / liquid culture (foot rot, damping-off); format: cell-based; conditions: liquid culture of mycelia fragments, PDB potato dextrose broth, 96-well plate, 24° C., 3-4 days after application, read-out: control of Thanatephorus cucumeris (inhibition of growth, photometric)
Method: Thanatephorus cucumeris (Rhizoctonia solani)/Liquid Culture (Foot Rot, Damping-Off): Mycelia fragments of a newly grown liquid culture of the fungus are directly mixed into nutrient broth (PDB potato dextrose broth). After placing a DMSO solution of the test compounds into a 96-well microtiter plate at an application rate of 200 ppm, the nutrient broth containing the fungal material was added. The test plates were incubated at 24° C. and the inhibition of growth was determined photometrically 3-4 days after application.

[6] = test system: Botryotinia fuckeliana (Botrytis cinerea); assay: Botryotinia fuckeliana (Botrytis cinerea) / liquid culture (gray mould); format: cell-based; conditions: Vogels broth, 96-well plate, 24° C., 3-4 days after application, read-out: control of Botryotinia fuckeliana (inhibition of growth, photometric)
[7] = test system: Glomerella lagenarium (Colletotrichum lagenarium); assay: Glomerella lagenarium (Colletotrichum lagenarium) / liquid culture (anthracnose); format: cell-based; conditions: Colletotrichum orbiculare, PDB potato dextrose broth, 96-well plate, 24° C., 3-4 days after application, read-out: control of Glomerella lagenarium (inhibition of growth, photometric)
[8] = test system: Blumeria graminis f. sp. tritici (Erysiphe graminis f. sp. tritici); assay: Blumeria graminis f. sp. tritici (Erysiphe graminis f. sp. tritici) / wheat / leaf disc preventative (powdery mildew on wheat); format: in vivo; conditions: foliar, wheat cv. Kanzler leaf segments, inoculated 1 day after application, assessed 6-8 days after application, read-out: control of Blumeria graminis (percent disease control compared to untreated)
[9] = test system: Puccinia recondita f. sp. tritici; assay: Puccinia recondita f. sp. tritici / wheat / leaf disc preventative (brown rust); format: in vivo; conditions: foliar, wheat cv Kanzler leaf segments, inoculated 1 day after application, assessed 7-9 days after application, read-out: control of Puccinia recondita f. sp. tritici (percent disease control compared to untreated)
Method: Puccinia recondita f. sp. tritici/Wheat/Leaf Disc Preventative (Brown Rust) Wheat leaf segments cultivated variety (cv) Kanzler were placed on agar in 24-well plates and sprayed with formulated test compound diluted in water at an application rate of 200 ppm. The leaf disks were inoculated with a spore suspension of the fungus 1 day after application. The inoculated leaf segments were incubated at 19° C. and 75% relative humidity under a light regime of 12/12 h (light/dark) in a climate cabinet and the activity of a compound was assessed as percent disease control compared to untreated when an appropriate level of disease damage appears in untreated check leaf segments (7-9 days after application). […].103

[10] = test system: Phaeosphaeria nodorum (Septoria nodorum); assay: Phaeosphaeria nodorum (Septoria nodorum) / wheat / leaf disc preventative (glume blotch); format: in vivo; conditions: Parastagonospora nodorum, foliar, wheat cv Kanzler leaf segments, inoculated 2 days after application, assessed 5-7 days after application, read-out: control of Phaeosphaeria nodorum (percent disease control compared to untreated)
[11] = test system: Monographella nivalis (Microdochium nivale); assay: Monographella nivalis (Microdochium nivale) / liquid culture (foot rot cereals); format: cell-based; conditions: PDB potato dextrose broth, 96-well plate, 24° C., 4-5 days after application, read-out: control of Monographella nivalis (inhibition of growth, photometric)
Method in brief: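 Cryostored conidia in potato dextrose broth added to test compound in DMSO at 200 ppm. Incubated at 24° C; growth inhibition read photometrically 4-5 days after application.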

[12] = test system: Pyrenophora teres; assay: Pyrenophora teres / barley / leaf disc preventative (net blotch); format: in vivo; conditions: foliar, barley cv Hasso leaf segments, inoculated two days after application, assessed 5-7 days after application, read-out: control of Pyrenophora teres (disease control compared to untreated)
[13] = test system: Gaeumannomyces graminis; assay: Gaeumannomyces graminis / liquid culture (take-all of cereals); format: cell-based; conditions: liquid culture of mycelial fragments, PDB potato dextrose broth, 96-well plate, 24° C., 4-5 days after application, read-out: control of Gaeumannomyces graminis (inhibition of growth, photometric)

CO/N=C(\C)c1cccc(CCCO/N=C(\C)c2nc(C)cc(C)n2)n1 [P.62, 1-(6-(3-[1-(4,6-dimethyl-pyrimidin-2-yl)-eth-(E)-ylideneaminooxy]-propyl)-pyridin-2-yl)-ethanone O-methyl oxime]
≥ 80%: pest or weed control at 200 ppm [1] | inhibition at 200 ppm [2] | inhibition at 200 ppm [3] | pest or weed control at 200 ppm [4] | inhibition at 200 ppm [5] | inhibition at 200 ppm [6]

CO/N=C(\C)c1cccc(CCCO/N=C2\CCCc3c2nc2ccsc2c3C)n1 [P.88]
≥ 80%: pest or weed control at 200 ppm [1] | inhibition at 200 ppm [2] | inhibition at 200 ppm [3] | pest or weed control at 200 ppm [4] | inhibition at 200 ppm [7] | pest or weed control at 200 ppm [8] | inhibition at 200 ppm [5] | pest or weed control at 200 ppm [9] | pest or weed control at 200 ppm [10] | inhibition at 200 ppm [6] | inhibition at 200 ppm [11] | pest or weed control at 200 ppm [12]

CO/N=C(\C)c1cccc(CCCO/N=C2\CCCc3c2nc2ccc(Cl)cc2c3C)n1 [P.91]
≥ 80%: pest or weed control at 200 ppm [1] | inhibition at 200 ppm [2] | inhibition at 200 ppm [3] | inhibition at 200 ppm [7] | pest or weed control at 200 ppm [8] | inhibition at 200 ppm [5] | pest or weed control at 200 ppm [9] | pest or weed control at 200 ppm [10] | inhibition at 200 ppm [6] | inhibition at 200 ppm [11]

CCc1c2c(nc3ccccc13)/C(=N/OCCCc1cccc(/C(C)=N/OC)n1)CCC2 [P.92]
≥ 80%: pest or weed control at 200 ppm [1] | inhibition at 200 ppm [2] | inhibition at 200 ppm [3] | pest or weed control at 200 ppm [4] | inhibition at 200 ppm [7] | pest or weed control at 200 ppm [8] | inhibition at 200 ppm [5] | pest or weed control at 200 ppm [9] | pest or weed control at 200 ppm [10] | inhibition at 200 ppm [6] | inhibition at 200 ppm [11] | pest or weed control at 200 ppm [12]

CO/N=C(\C)c1cccc(CCCO/N=C2\CCCc3cc4c(nc32)CCCC4)n1 [P.94]
≥ 80%: pest or weed control at 200 ppm [1] | inhibition at 200 ppm [2] | inhibition at 200 ppm [3] | pest or weed control at 200 ppm [4] | inhibition at 200 ppm [7] | inhibition at 200 ppm [13] | pest or weed control at 200 ppm [8] | inhibition at 200 ppm [5] | pest or weed control at 200 ppm [9] | pest or weed control at 200 ppm [10] | inhibition at 200 ppm [6] | inhibition at 200 ppm [11] | pest or weed control at 200 ppm [12]

CO/N=C(\C)c1cccc(CCCO/N=C2\CCCc3cc4cc(Cl)ccc4nc32)n1 [P.96]
≥ 80%: pest or weed control at 200 ppm [1] | inhibition at 200 ppm [2] | inhibition at 200 ppm [3] | inhibition at 200 ppm [7] | inhibition at 200 ppm [13] | pest or weed control at 200 ppm [8] | inhibition at 200 ppm [5] | pest or weed control at 200 ppm [10] | inhibition at 200 ppm [6] | inhibition at 200 ppm [11] | pest or weed control at 200 ppm [12]

CO/N=C(\C)c1cccc(CCCO/N=C2\CCCc3cc4ccccc4nc32)n1 [P.100]
≥ 80%: pest or weed control at 200 ppm [1] | inhibition at 200 ppm [2] | inhibition at 200 ppm [3] | pest or weed control at 200 ppm [4] | inhibition at 200 ppm [7] | inhibition at 200 ppm [13] | pest or weed control at 200 ppm [8] | inhibition at 200 ppm [5] | pest or weed control at 200 ppm [9] | pest or weed control at 200 ppm [10] | inhibition at 200 ppm [6] | inhibition at 200 ppm [11] | pest or weed control at 200 ppm [12]
